According to US20230131535A1, “ARYLMETHYLENE AROMATIC COMPOUNDS AS Kv1.3 POTASSIUM SHAKER CHANNEL BLOCKERS” (D. E. Shaw Research, LLC, priority 2019, published 2023):

Target: T1, Kv1.3 potassium channel (Homo sapiens, UniProt P22001)
T1 construct: expressed in transfected cells
Experiment: Kv1.3 potassium channel blocker activity, automated whole-cell patch clamp (Patchliner)
Format: cell-based
Details: Table 6; CHO-K1 cells stably expressing Kv1.3; whole cell current, pulses -90 mV to +40 mV; read-out: Kv1.3_IC50
Protocol: Example 67. Evaluation of Kv1.3 Potassium Channel Blocker Activities
The assay described below is used to evaluate the disclosed compound's activities as Kv1.3 potassium channel blockers.
CHO-K1 cells stably expressing Kv1.3 were grown in DMEM containing 10% heat-inactivated FBS, 1 mM Sodium Pyruvate, 2 mM L-Glutamine and G418 (500 μg/ml). Cells were grown in culture flasks at 37° C. in a 5% CO2-humidified incubator.
The cells were bathed in an extracellular solution containing 140 mM NaCl, 4 mM KCl, 2 mM CaCl2), 1 mM MgCl2, 5 mM Glucose, 10 mM HEPES; pH adjusted to 7.4 with NaOH; 295-305 mOsm. The internal solution contained 50 mM KCl, 10 mM NaCl, 60 mM KF, 20 mM EGTA, 10 mM HEPES; pH adjusted to 7.2 with KOH; 285 mOsm. All compounds were dissolved in DMSO at 30 mM. Compound stock solutions were freshly diluted with external solution to concentrations of 30 nM, 100 nM, 300 nM, 1 μM, 3 μM, 10 μM, 30 μM and 100 μM. The highest content of DMSO (0.3%) was present in 100 μM.
The currents were evoked by applying 100 ms depolarizing pulses from −90 mV (holding potential) to +40 mV were applied with 0.1 Hz frequency. Control (compound-free) and compound pulse trains for each compound concentration applied contained 20 pulses. 10 second breaks were used between pulse trains (see Table 4 below).
Whole cell current recordings and compound application were enabled by means of an automated patch clamp platform Patchliner (Nanion Technologies GmbH). EPC 10 patch clamp amplifier (HIEKA Elektronik Dr. Schulze GmbH) along with Patchmaster software (HIEKA Elektronik Dr. Schulze GmbH) was used for data acquisition. Data were sampled at 10 kHz without filtering. Passive leak currents were subtracted online using a P/4 procedure (HEKA Elektronik Dr. Schulze GmbH). Increasing compound concentrations were applied consecutively to the same cell without washouts in between. Total compound incubation time before the next pulse train was not longer than 10 seconds. Peak current inhibition was observed during compound equilibration.
AUC and peak values were obtained with Patchmaster (HEKA Elektronik Dr. Schulze GmbH). To determine IC50, the last single pulse in the pulse train corresponding to a given compound concentration was used. Obtained AUC and peak values in the presence of compound were normalized to control values in the absence of compound. Using Origin (OridinLab), IC50 was derived from data fit to Hill equation: Icompound/Icontrol=(100−A)/(1+([compound]/IC50)nH)+A, where IC50 value is the concentration at which current inhibition is half-maximal, [compound] is the applied compound concentration, A is the fraction of current that is not blocked and nH is the Hill coefficient.

T1 sequence (P22001 whole entry): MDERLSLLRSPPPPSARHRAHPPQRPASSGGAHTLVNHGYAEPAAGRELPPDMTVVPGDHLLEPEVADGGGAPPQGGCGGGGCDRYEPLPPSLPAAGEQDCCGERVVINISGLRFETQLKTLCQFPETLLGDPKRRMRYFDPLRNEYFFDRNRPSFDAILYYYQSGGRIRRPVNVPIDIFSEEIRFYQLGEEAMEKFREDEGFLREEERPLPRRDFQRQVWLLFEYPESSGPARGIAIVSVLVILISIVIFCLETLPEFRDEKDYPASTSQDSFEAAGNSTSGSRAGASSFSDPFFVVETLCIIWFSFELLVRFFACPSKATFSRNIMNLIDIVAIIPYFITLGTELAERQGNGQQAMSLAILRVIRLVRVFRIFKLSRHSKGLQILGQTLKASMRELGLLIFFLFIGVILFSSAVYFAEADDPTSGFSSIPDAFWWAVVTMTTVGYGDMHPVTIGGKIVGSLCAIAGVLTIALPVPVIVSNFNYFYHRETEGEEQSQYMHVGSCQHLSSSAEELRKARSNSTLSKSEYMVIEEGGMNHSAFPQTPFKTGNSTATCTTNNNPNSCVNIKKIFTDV

Row | SMILES | IC50
1 | O=C(NC(c1ccncc1)c1c(O)ccc(Cl)c1Cl)C1CNC1 (single isomer, unassigned) [Compound 49, N-[(2,3-dichloro-6-hydroxyphenyl)(pyridin-4-yl)methyl]azetidine-3-carboxamide] | < 10 µM
2 | O=C(N[C@@H](c1ccncc1)c1c(O)ccc(Cl)c1Cl)[C@@H]1CCCN1 (single isomer, unassigned) [Compound 65] | < 30 µM
3 | O=C(N[C@H](c1ccncc1)c1c(O)ccc(Cl)c1Cl)[C@H]1CCCN1 (single isomer, unassigned) [Compound 66] | < 30 µM
4 | O=C(N[C@@H](c1ccncc1)c1c(O)ccc(Cl)c1Cl)[C@H]1CCCN1 (single isomer, unassigned) [Compound 67] | < 10 µM
5 | CN1CC(C(=O)NC(c2ccncc2)c2c(O)ccc(Cl)c2Cl)C1 (single isomer, unassigned) [Compound 72, N-[(2,3-dichloro-6-hydroxyphenyl)(pyridin-4-yl)methyl]-1-methylazetidine-3-carboxamide] | < 1 µM
6 | CN1CC(C(=O)NC(c2ccncc2)c2c(O)ccc(Cl)c2Cl)C1 (single isomer, unassigned) [Compound 75, N-[(2,3-dichloro-6-hydroxyphenyl)(pyridin-4-yl)methyl]-1-methylazetidine-3-carboxamide] | < 10 µM
7 | NC(c1ccccc1)c1c(O)ccc(Cl)c1Cl (stereo not drawn) [Compound 3, 2-[amino(phenyl)methyl]-3,4-dichlorophenol] | < 30 µM
8 | NC(=O)c1cnccc1Cc1cc(Cl)c(Cl)cc1O [Compound 4, 4-[(4,5-dichloro-2-hydroxyphenyl)methyl]pyridine-3-carboxamide] | < 10 µM
9 | NC(c1ccccc1)c1cc(Cl)c(Cl)cc1O (stereo not drawn) [Compound 5, 2-[amino(phenyl)methyl]-4,5-dichlorophenol] | < 30 µM
10 | NC(c1cn[nH]c1)c1c(O)ccc(Cl)c1Cl (stereo not drawn) [Compound 7, 2-[amino(1H-pyrazol-4-yl)methyl]-3,4-dichlorophenol] | < 30 µM
11 | NC(c1cn[nH]c1)c1cc(Cl)c(Cl)cc1O (stereo not drawn) [Compound 10, 2-[amino(1H-pyrazol-4-yl)methyl]-4,5-dichlorophenol] | < 10 µM
12 | Nc1ccc(C(N)c2cc(Cl)c(Cl)cc2O)cn1 (stereo not drawn) [Compound 12, 2-[amino(6-aminopyridin-3-yl)methyl]-4,5-dichlorophenol] | < 10 µM
13 | NC(=O)c1ccc(C(N)c2cc(Cl)c(Cl)cc2O)cc1 (stereo not drawn) [Compound 13, 4-[amino(4,5-dichloro-2-hydroxyphenyl)methyl]benzamide] | < 10 µM
14 | NC(c1ccc(=O)[nH]c1)c1cc(Cl)c(Cl)cc1O (stereo not drawn) [Compound 15, 5-[amino(4,5-dichloro-2-hydroxyphenyl)methyl]-1,2-dihydropyridin-2-one] | < 10 µM
15 | N#Cc1ccc(C(N)c2cc(Cl)c(Cl)cc2O)cc1 (stereo not drawn) [Compound 16, 4-[amino(4,5-dichloro-2-hydroxyphenyl)methyl]benzonitrile] | < 10 µM
16 | CC(=O)NC(c1ccncc1)c1cc(Cl)c(Cl)cc1O (stereo not drawn) [Compound 19, N-[(4,5-dichloro-2-hydroxyphenyl)(pyridin-4-yl)methyl]acetamide] | < 10 µM
17 | Oc1ccc(Cl)c(Cl)c1Cc1ccncc1 [Compound 22, 3,4-dichloro-2-[(pyridin-4-yl)methyl]phenol] | < 10 µM
18 | NC(=O)c1cc(Cc2c(O)ccc(Cl)c2Cl)ccn1 [Compound 24, 4-[(2,3-dichloro-6-hydroxyphenyl)methyl]pyridine-2-carboxamide] | < 10 µM
19 | Oc1ccc2ccccc2c1C(O)c1ccncc1 (stereo not drawn) [Compound 32, 1-[hydroxyl(pyridin-4-yl)methyl]naphthalen-2-ol] | < 10 µM
20 | Oc1ccc(Cl)c(Cl)c1C(O)c1ccc2cc[nH]c2c1 (stereo not drawn) [Compound 48, 3,4-dichloro-2-[hydroxy(1H-indol-6-yl)methyl]phenol] | < 10 µM
21 | O=C(NC(c1ccncc1)c1c(O)ccc(Cl)c1Cl)c1cn[nH]c1 (stereo not drawn) [Compound 57, N-[(2,3-dichloro-6-hydroxyphenyl)(pyridin-4-yl)methyl]-1H-pyrazole-4-carboxamide] | < 30 µM
22 | Oc1ccc(Cl)c(Cl)c1C(O)c1ccnc(N2CCOCC2)c1 (stereo not drawn) [Compound 58, 3,4-dichloro-2-[hydroxy[2-(morpholin-4-yl)pyridin-4-yl]methyl]phenol] | < 10 µM
23 | O=C(c1ccncc1)c1c(O)ccc(Cl)c1Cl [Compound 61, 3,4-dichloro-2-(pyridine-4-carbonyl)phenol] | < 10 µM
24 | Nc1ccc(Cl)c(Cl)c1C(=O)c1ccncc1 [Compound 62, 3,4-dichloro-2-(pyridine-4-carbonyl)aniline] | < 10 µM
25 | COCC(=O)NC(c1ccncc1)c1c(O)ccc(Cl)c1Cl (stereo not drawn) [Compound 63, N-[(2,3-dichloro-6-hydroxyphenyl)(pyridin-4-yl)methyl]-2-methoxyacetamide] | < 10 µM
26 | CC(C)C(=O)NC(c1ccncc1)c1c(O)ccc(Cl)c1Cl (stereo not drawn) [Compound 69, N-[(2,3-dichloro-6-hydroxyphenyl)(pyridin-4-yl)methyl]-2-methylpropanamide] | < 30 µM

Further lines, results first:

Row | IC50 | SMILES
27 | < 30 µM | Cc1cnccc1C(O)c1c(O)ccc(Cl)c1Cl (single isomer, unassigned) [Compound 43, 3,4-dichloro-2-[hydroxy(3-methylpyridin-4-yl)methyl]phenol]
28 | < 30 µM | Nc1cc(C(O)c2c(O)ccc(Cl)c2Cl)ccn1 (single isomer, unassigned) [Compound 44, 2-[(2-aminopyridin-4-yl)(hydroxy)methyl]-3,4-dichlorophenol]
29 | < 30 µM | NCc1cc(C(O)c2c(O)ccc(Cl)c2Cl)ccn1 (single isomer, unassigned) [Compound 47, 2-((2-(aminomethyl)pyridin-4-yl)(hydroxy)methyl)-3,4-dichlorophenol]
30 | < 10 µM | Nc1ccc(C(N)c2c(O)ccc(Cl)c2Cl)cn1 (stereo not drawn) [Compound 14, 2-[amino(6-aminopyridin-3-yl)methyl]-3,4-dichlorophenol]
31 | < 10 µM | NC(=O)c1cc(C(O)c2c(O)ccc(Cl)c2Cl)ccn1 (stereo not drawn) [Compound 23, 4-[(2,3-dichloro-6-hydroxyphenyl)(hydroxy)methyl]pyridine-2-carboxamide]
32 | < 10 µM | CC(c1ccncc1)c1c(O)ccc(Cl)c1Cl (stereo not drawn) [Compound 25, 3,4-dichloro-2-[1-(pyridin-4-yl)ethyl]phenol]
33 | < 10 µM | N#Cc1cc(C(O)c2c(O)ccc(Cl)c2Cl)ccn1 (stereo not drawn) [Compound 30, 4-[(2,3-dichloro-6-hydroxyphenyl)(hydroxy)methyl]pyridine-2-carbonitrile]
34 | < 10 µM | CC(=O)NCc1cc(C(O)c2c(O)ccc(Cl)c2Cl)ccn1 (stereo not drawn) [Compound 33, N-([4-[(2,3-dichloro-6-hydroxyphenyl)(hydroxy)methyl]pyridin-2-yl]methyl)acetamide]
35 | < 10 µM | Cc1cc(C(O)c2c(O)ccc(Cl)c2Cl)ccn1 (stereo not drawn) [Compound 35, 3,4-dichloro-2-[hydroxy(2-methylpyridin-4-yl)methyl]phenol]
36 | < 10 µM | Oc1ccc(Cl)c(Cl)c1C(O)c1cccc2[nH]ccc12 (stereo not drawn) [Compound 51, 3,4-dichloro-2-[hydroxy(1H-indol-4-yl)methyl]phenol]
37 | < 30 µM | Oc1ccc(Cl)c(Cl)c1C(O)c1ccc2[nH]ccc2c1 (stereo not drawn) [Compound 52, 3,4-dichloro-2-[hydroxy(1H-indol-5-yl)methyl]phenol]
38 | < 10 µM | Oc1ccc(Cl)c(Cl)c1C(O)c1cnccn1 (stereo not drawn) [Compound 54, 3,4-dichloro-2-[hydroxy(pyrazin-2-yl)methyl]phenol]
39 | < 10 µM | Oc1ccc(Cl)c(Cl)c1C(O)c1ccncn1 (stereo not drawn) [Compound 55, 3,4-dichloro-2-[hydroxy(pyrimidin-4-yl)methyl]phenol]
40 | < 10 µM | Oc1ccc(Cl)c(Cl)c1C(O)c1cn[nH]c1 (stereo not drawn) [Compound 56, 3,4-dichloro-2-[hydroxy(1H-pyrazol-4-yl)methyl]phenol]
41 | < 30 µM | Oc1ccc(Cl)c(Cl)c1C(O)c1c[nH]c2ccccc12 (stereo not drawn) [Compound 59, 3,4-dichloro-2-[hydroxy(1H-indol-3-yl)methyl]phenol]
42 | < 1 µM | Cn1cc(C(O)c2c(O)ccc(Cl)c2Cl)ccc1=O (stereo not drawn) [Compound 60, 5-[(2,3-dichloro-6-hydroxyphenyl)(hydroxy)methyl]-1-methyl-1,2-dihydropyridin-2-one]
